Laboratory results reported in patent publication US20240166642A1, “INHIBITORS OF MYELOPEROXIDASE” (ASTRAZENECA AB, priority 2022, published 2024).

Tests used:
[1] = molecular target: MPO (purified from HL60 cells) (Homo sapiens (Human), UniProt P05164); test: MPO activity (IC50), luminol chemiluminescence assay; assay type: biochemical; settings: PBS pH7.4, luminol 100 μM, H2O2 50 μM, chemiluminescence recorded after 15 minutes
Protocol: (§1) The experiments were performed in phosphate-buffered saline (PBS), pH7.4. A 10 mM luminol (A4695, Sigma Aldrich, St Louis, MO, USA) stock was prepared in distilled water and further diluted in PBS to a final concentration of 100 μM. H2O2 was prepared as 1 mM stock in PBS, yielding a final concentration of 50 μM after addition into the assay. The compounds were serially diluted in DMSO in a separate plate as a 100× stock solution, and MPO (purified from HL60 cells) and TPO (produced in insect cells, RSR Ltd, Cardiff, UK), were diluted to yield a final concentration of approximately 14 and 150 ng/mL, generating 5600 and 9300 light counts per seconds (LCPS) upon incubation with luminol.
(§2) The experiment was run by pipetting 2 μL 100× stock solution of the compound and 200 μL diluted enzyme in PBS into wells in a 96-well Optiplate (6005290, Perkin Elmer/Thermo Fischer, Waltham, MS, USA), followed by addition of 10 μL H2O2 containing PBS. Chemiluminescence measurement (Perkin Elmer Wallac Microbeta Trilux 1450-029 (12-detector), Turkuu, Finland) was started directly and recorded after 2, 10 and 15 minutes.

[2] = molecular target: TPO (produced in insect cells, RSR Ltd) (Homo sapiens (Human), UniProt P07202); test: TPO activity (IC50), luminol chemiluminescence assay; assay type: biochemical; settings: PBS pH7.4, luminol 100 μM, H2O2 50 μM, chemiluminescence recorded after 15 minutes
Protocol: as §1, §2

Chain of TPO (produced in insect cells, RSR Ltd) (P07202 19-933): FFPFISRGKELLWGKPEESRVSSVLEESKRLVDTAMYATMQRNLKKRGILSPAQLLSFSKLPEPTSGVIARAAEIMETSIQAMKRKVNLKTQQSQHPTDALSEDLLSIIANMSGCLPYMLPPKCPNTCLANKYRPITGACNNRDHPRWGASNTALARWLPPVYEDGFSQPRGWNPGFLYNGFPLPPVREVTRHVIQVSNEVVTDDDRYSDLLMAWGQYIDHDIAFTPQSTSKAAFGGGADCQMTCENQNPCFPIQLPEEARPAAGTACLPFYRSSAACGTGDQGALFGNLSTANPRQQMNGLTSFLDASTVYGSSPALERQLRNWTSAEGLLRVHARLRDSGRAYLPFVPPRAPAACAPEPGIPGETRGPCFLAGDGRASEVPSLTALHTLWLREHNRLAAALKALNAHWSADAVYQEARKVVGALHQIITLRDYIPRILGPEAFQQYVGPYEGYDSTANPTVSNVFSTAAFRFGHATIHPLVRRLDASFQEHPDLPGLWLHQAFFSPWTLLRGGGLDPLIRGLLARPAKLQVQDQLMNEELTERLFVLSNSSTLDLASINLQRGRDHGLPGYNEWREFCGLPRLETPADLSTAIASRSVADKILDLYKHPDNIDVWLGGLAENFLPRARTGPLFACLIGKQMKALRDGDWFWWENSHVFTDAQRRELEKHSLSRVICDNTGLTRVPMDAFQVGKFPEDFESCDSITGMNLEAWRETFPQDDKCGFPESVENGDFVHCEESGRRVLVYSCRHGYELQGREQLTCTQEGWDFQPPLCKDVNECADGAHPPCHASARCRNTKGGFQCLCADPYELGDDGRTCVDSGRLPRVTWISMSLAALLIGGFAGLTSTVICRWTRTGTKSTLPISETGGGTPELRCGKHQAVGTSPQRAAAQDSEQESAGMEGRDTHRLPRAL
Chain of MPO (purified from HL60 cells) (P05164 49-745): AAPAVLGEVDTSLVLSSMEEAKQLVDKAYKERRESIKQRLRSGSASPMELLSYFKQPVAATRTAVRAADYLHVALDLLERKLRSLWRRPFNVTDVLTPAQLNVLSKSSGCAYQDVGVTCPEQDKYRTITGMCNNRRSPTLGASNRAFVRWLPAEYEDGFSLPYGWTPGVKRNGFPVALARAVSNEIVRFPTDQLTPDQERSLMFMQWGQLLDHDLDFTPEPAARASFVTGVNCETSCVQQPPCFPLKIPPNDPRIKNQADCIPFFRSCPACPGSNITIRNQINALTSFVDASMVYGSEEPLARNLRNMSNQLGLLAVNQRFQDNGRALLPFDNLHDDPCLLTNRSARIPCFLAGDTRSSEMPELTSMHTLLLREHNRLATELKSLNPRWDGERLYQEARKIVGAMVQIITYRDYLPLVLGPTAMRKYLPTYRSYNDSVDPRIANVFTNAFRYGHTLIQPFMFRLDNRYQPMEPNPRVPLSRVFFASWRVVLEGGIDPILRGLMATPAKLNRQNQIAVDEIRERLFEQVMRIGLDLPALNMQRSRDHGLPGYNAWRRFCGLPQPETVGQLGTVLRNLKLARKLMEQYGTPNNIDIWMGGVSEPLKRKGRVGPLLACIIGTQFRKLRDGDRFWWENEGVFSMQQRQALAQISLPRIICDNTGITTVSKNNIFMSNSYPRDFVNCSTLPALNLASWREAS

| SMILES | IC50 [1] | IC50 [2] |
| --- | --- | --- |
| O=c1[nH]c(=S)n(Cc2ccncc2[C@H]2C[C@@H](C(F)(F)F)CCN2)c2cc[nH]c12 (racemic) [Example 22, rac-2-Thioxo-1-((3-((2R,4S)-4-(trifluoromethyl)piperidin-2-yl)pyridin-4-yl)methyl)-1,2,3,5-tetrahydro-4H-pyrrolo[3,2-d]pyrimidin-4-one] | 11.5 nM | 950 nM |
| O=c1[nH]c(=S)n(Cc2ccccc2[C@H]2CCCCN2)c2cc[nH]c12 (single isomer, unassigned) [Example 1a] | 12.1 nM | 1010 nM |
| O=c1[nH]c(=S)n(Cc2ccc(Cl)cc2[C@H]2CCCCN2)c2cc[nH]c12 (single isomer, unassigned) [Example 2a] | 12.2 nM | 1040 nM |
| O=c1[nH]c(=S)n(Cc2ccc(Cl)cc2[C@H]2CCCN2)c2cc[nH]c12 (single isomer, unassigned) [Example 3b] | 27.5 nM | 700 nM |
| O=c1[nH]c(=S)n(Cc2ccc(Cl)cc2[C@H]2COCCN2)c2cc[nH]c12 (single isomer, unassigned) [Example 4a] | 18.7 nM | 370 nM |
| O=c1[nH]c(=S)n(Cc2ccc(Cl)cc2[C@H]2COCCN2)c2cc[nH]c12 (single isomer, unassigned) [Example 4b] | 127 nM | 810 nM |
| O=c1[nH]c(=S)n(Cc2ccccc2[C@@H]2CCCCCN2)c2cc[nH]c12 (single isomer, unassigned) [Example 6a] | 19.6 nM | 420 nM |
| O=c1[nH]c(=S)n(Cc2ccccc2[C@H]2CC(F)(F)CCN2)c2cc[nH]c12 (single isomer, unassigned) [Example 12a] | 27 nM | 670 nM |
| O=c1[nH]c(=S)n(Cc2cccnc2[C@H]2C[C@@H](C(F)(F)F)CCN2)c2cc[nH]c12 (single isomer, unassigned) [Example 16a] | 31.4 nM | 1610 nM |
| O=c1[nH]c(=S)n(Cc2ccccc2[C@H]2C[C@H](C(F)(F)F)CCN2)c2nc[nH]c12 (single isomer, unassigned) [Example 18a] | 56.3 nM | 730 nM |
| O=c1[nH]c(=S)n(Cc2ccccc2[C@H]2C[C@@H](C(F)F)CCN2)c2cc[nH]c12 (single isomer, unassigned) [Example 19a] | 11.9 nM | 1760 nM |
| O=c1[nH]c(=S)n(Cc2ccccc2[C@H]2CNCCO2)c2cc[nH]c12 (single isomer, unassigned) [Example 29] | 15 nM | 540 nM |
| O=c1[nH]c(=S)n(Cc2cccnc2[C@H]2C[C@H](C(F)(F)F)CCN2)c2cc[nH]c12 (single isomer, unassigned) [Example 31a] | 30 nM | 1700 nM |
| O=c1[nH]c(=S)n(Cc2cccnc2[C@H]2C[C@H](C(F)(F)F)CCN2)c2cc[nH]c12 (single isomer, unassigned) [Example 31b] | 48 nM | 2900 nM |
| O=c1[nH]c(=S)n(Cc2ccccc2[C@H]2C[C@H](C(F)(F)F)CCN2)c2cc[nH]c12 (stereo in doubt) [Example 17a, rel-2-Thioxo-1-(2-((2R,4R)-4-(trifluoromethyl)piperidin-2-yl)benzyl)-1,2,3,5-tetrahydro-4H-pyrrolo[3,2-d]pyrimidin-4-one] | 16.5 nM | 760 nM |
| O=c1[nH]c(=S)n(Cc2ccc(Cl)cc2C2COCCN2)c2nc[nH]c12 (stereo not shown) [Example 5, 3-(4-Chloro-2-(morpholin-3-yl)benzyl)-2-thioxo-1,2,3,7-tetrahydro-6H-purin-6-one] | 194 nM | 1680 nM |
| O=c1[nH]c(=S)n(Cc2ccccc2[C@@H]2COCCN2)c2cc[nH]c12 [Example 8, (R)-1-(2-(Morpholin-3-yl)benzyl)-2-thioxo-1,2,3,5-tetrahydro-4H-pyrrolo[3,2-d]pyrimidin-4-one] | 67 nM | 930 nM |
| CN1CCNC(c2ccccc2Cn2c(=S)[nH]c(=O)c3[nH]ccc32)C1 (stereo not shown) [Example 9, 1-(2-(4-Methylpiperazin-2-yl)benzyl)-2-thioxo-1,2,3,5-tetrahydro-4H-pyrrolo[3,2-d]pyrimidin-4-one] | 10.1 nM | 1270 nM |
| O=c1[nH]c(=S)n(Cc2ccccc2C2CCC(C(F)(F)F)CN2)c2cc[nH]c12 (stereo not shown) [Example 11, 2-Thioxo-1-(2-(5-(trifluoromethyl)piperidin-2-yl)benzyl)-1,2,3,5-tetrahydro-4H-pyrrolo[3,2-d]pyrimidin-4-one] | 13 nM | 540 nM |
| O=c1[nH]c(=S)n(Cc2ccccc2[C@H]2C[C@@H](C(F)(F)F)CCN2)c2nc[nH]c12 [Example 13a, 2-Thioxo-3-(2-((2R,4S)-4-(trifluoromethyl)piperidin-2-yl)benzyl)-1,2,3,7-tetrahydro-6H-purin-6-one] | 16 nM | 1050 nM |
| O=c1[nH]c(=S)n(Cc2ccccc2C2CCC(F)CN2)c2nc[nH]c12 (stereo not shown) [Example 15, 3-(2-(5-Fluoropiperidin-2-yl)benzyl)-2-thioxo-1,2,3,7-tetrahydro-6H-purin-6-one] | 16 nM | 540 nM |
| O=c1[nH]c(=S)n(Cc2cccnc2C2CCCCN2)c2cc[nH]c12 (stereo not shown) [Example 20, 1-((2-(Piperidin-2-yl)pyridin-3-yl)methyl)-2-thioxo-1,2,3,5-tetrahydro-4H-pyrrolo[3,2-d]pyrimidin-4-one] | 46 nM | 2760 nM |
| O=c1[nH]c(=S)n(Cc2cccc3c2CNCC3)c2cc[nH]c12 [Example 23, 1-((1,2,3,4-Tetrahydroisoquinolin-8-yl)methyl)-2-thioxo-1,2,3,5-tetrahydro-4H-pyrrolo[3,2-d]pyrimidin-4-one] | 10 nM | 380 nM |

Now those with a lower IC50 [1], led by results:

| IC50 [1] | IC50 [2] | SMILES |
| --- | --- | --- |
| 5.7 nM | 540 nM | O=c1[nH]c(=S)n(Cc2ncccc2[C@H]2C[C@@H](C(F)(F)F)CCN2)c2cc[nH]c12 (racemic) [Example 21, rac-2-Thioxo-1-((3-((2R,4S)-4-(trifluoromethyl)piperidin-2-yl)pyridin-2-yl)methyl)-1,2,3,5-tetrahydro-4H-pyrrolo[3,2-d]pyrimidin-4-one] |
| 2.1 nM | 850 nM | O=c1[nH]c(=S)n(Cc2ccccc2[C@H]2CCCCN2)c2cc[nH]c12 (single isomer, unassigned) [Example 1b] |
| 3.6 nM | 550 nM | O=c1[nH]c(=S)n(Cc2ccc(Cl)cc2[C@H]2CCCCN2)c2cc[nH]c12 (single isomer, unassigned) [Example 2b] |
| 3 nM | 550 nM | O=c1[nH]c(=S)n(Cc2ccc(Cl)cc2[C@H]2CCCN2)c2cc[nH]c12 (single isomer, unassigned) [Example 3a] |
| 2.8 nM | 300 nM | O=c1[nH]c(=S)n(Cc2ccccc2[C@@H]2CCCCCN2)c2cc[nH]c12 (single isomer, unassigned) [Example 6b] |
| 6 nM | 1200 nM | O=c1[nH]c(=S)n(Cc2ccccc2[C@H]2C[C@@H](C(F)(F)F)CCN2)c2cc[nH]c12 (single isomer, unassigned) [Example 10a] |
| 1.5 nM | 430 nM | O=c1[nH]c(=S)n(Cc2ccccc2[C@H]2C[C@@H](C(F)(F)F)CCN2)c2cc[nH]c12 (single isomer, unassigned) [Example 10b] |
| 2.7 nM | 320 nM | O=c1[nH]c(=S)n(Cc2ccccc2[C@H]2CC(F)(F)CCN2)c2cc[nH]c12 (single isomer, unassigned) [Example 12b] |
| 3.9 nM | 780 nM | O=c1[nH]c(=S)n(Cc2cccnc2[C@H]2C[C@@H](C(F)(F)F)CCN2)c2cc[nH]c12 (single isomer, unassigned) [Example 16b] |
| 2.7 nM | 410 nM | O=c1[nH]c(=S)n(Cc2ccccc2[C@H]2C[C@H](C(F)(F)F)CCN2)c2nc[nH]c12 (single isomer, unassigned) [Example 18b] |
| 1.3 nM | 570 nM | O=c1[nH]c(=S)n(Cc2ccccc2[C@H]2C[C@@H](C(F)F)CCN2)c2cc[nH]c12 (single isomer, unassigned) [Example 19b] |
| 3.4 nM | 630 nM | O=c1[nH]c(=S)n(Cc2ccccc2[C@@H]2C[C@@H](C(F)(F)F)CCN2)c2cc[nH]c12 (stereo in doubt) [Example 17b, rac-2-thioxo-1-(2-((2R,4R)-4-(trifluoromethyl)piperidin-2-yl)benzyl)-1,2,3,5-tetrahydro-4H-pyrrolo[3,2-d]pyrimidin-4-one] |
| 7.1 nM | 610 nM | O=c1[nH]c(=S)n(Cc2ccc(Cl)cc2[C@H]2CCCCCN2)c2nc[nH]c12 [Example 7, (R)-3-(2-(Azepan-2-yl)-4-chlorobenzyl)-2-thioxo-1,2,3,7-tetrahydro-6H-purin-6-one] |
| 2.3 nM | 430 nM | O=c1[nH]c(=S)n(Cc2ccccc2[C@@H]2C[C@H](C(F)(F)F)CCN2)c2nc[nH]c12 [Example 13b, 2-Thioxo-3-(2-((2S,4R)-4-(trifluoromethyl)piperidin-2-yl)benzyl)-1,2,3,7-tetrahydro-6H-purin-6-one] |
| 7.2 nM | 540 nM | O=c1[nH]c(=S)n(Cc2ccccc2C2CC(F)(F)CCN2)c2nc[nH]c12 (stereo not shown) [Example 14, 3-(2-(4,4-Difluoropiperidin-2-yl)benzyl)-2-thioxo-1,2,3,7-tetrahydro-6H-purin-6-one] |
